Reference: patent US9708314B2, “Heterocyclic amide compound” (NISSAN CHEMICAL INDUSTRIES, LTD., priority 2013, dated 2017)

Legend:
Format in all cases: in vivo
[1] = system: Echinochloa oryzacola Vasing.; assay: Test Example 1: herbicidal activity, application before weed generation in submerged conditions; settings: Application herbicide amount 320 g/ha; Seventeenth Table
Outline: (§1)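 Rating, on a six-step scale from almost no effect (0) to almost completely withered (5), was made three weeks after pre-emergence treatment. Treatment was surface application to flooded pots at g/ha rates, with plants kept at 25° C. to 30° C.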

Monochoria vaginalis = assay: as above; settings: Application herbicide amount 320 g/ha; Seventeenth Table
Outline: as §1

Scirpus juncoides = assay: as above; settings: Application herbicide amount 320 g/ha; Seventeenth Table
Outline: as §1

[2] = system: transplanted Oryza sativa; assay: Test Example 1: effect on crop, application before weed generation in submerged conditions; settings: Application herbicide amount 320 g/ha; Seventeenth Table
Outline: as §1

Cyperus difformis = assay: Test Example 3: herbicidal effect by application to foliage (Wagner pot, water depth 0.1-0.5 cm); settings: Nineteenth Table; application herbicide amount 320 g/ha
Outline: (§2)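 Alluvial soil in 1/10000 are Wagner pots, sown and grown 14 days in a 25–30 °C greenhouse. An emulsifiable concentrate diluted in water to the set dose (g/ha) was sprayed on stems and leaves. Effect scored three weeks later on a 0–5 scale: 5 = ≥90% herbicidal ratio, 0 = ≤5%.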

[3] = system: Echinochloa crus-galli var. crus-galli; assay: as above; settings: Nineteenth Table; application herbicide amount 320 g/ha
Outline: as §2

Leptochloa chinensis = assay: as above; settings: Nineteenth Table; application herbicide amount 320 g/ha
Outline: as §2

[4] = system: directly sowed Oryza sativa; assay: Test Example 3: effect on crop by application to foliage (Wagner pot, water depth 0.1-0.5 cm); settings: Nineteenth Table; application herbicide amount 320 g/ha
Outline: as §2

Stellaria media = assay: Test Example 4: herbicidal effect by application to foliage (diluvial soil, plastic box); settings: application to foliage, application herbicide amount 320 g/ha
Outline: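 Emulsion-formulated compound, diluted to a predetermined g/ha dose, applied by small sprayer to leaves and stems of 14-day-old seedlings grown in sterilized diluvial soil. Effect rated on 0–5 herbicidal-ratio scale three weeks on.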

SMILES | A: Echinochloa oryzicola Vasing. (herbicidal effect grade) [1] | C: Monochoria vaginalis (herbicidal effect grade) (Monochoria vaginalis) | B: Scirpus juncoides (herbicidal effect grade) (Scirpus juncoides) | a: transplanted Oryza sativa (effect on crop grade) [2] | E (Cyperus difformis) herbicidal ratio grade (Cyperus difformis) | H (Echinochloa crus-galli var. crus-galli) herbicidal ratio grade [3] | D (Leptochloa chinensis) herbicidal ratio grade (Leptochloa chinensis) | b (directly sowed Oryza sativa) effect on crop grade [4] | P (Stellaria media) herbicidal effect (Stellaria media)
CC[S+]([O-])c1nnc2c(C(=O)Nc3nnc(C)o3)ccc(C(F)(F)F)n12 (stereo not drawn) [1-034] | 4 (Herbicidal ratio of 70% or more and less than 90%) | 4 (Herbicidal ratio of 70% or more and less than 90%) | 4 (Herbicidal ratio of 70% or more and less than 90%) | 3 (Herbicidal ratio of 40% or more and less than 70%) | 5 (Herbicidal ratio of 90% or more (almost completely withered)) | 5 (Herbicidal ratio of 90% or more (almost completely withered)) | 5 (Herbicidal ratio of 90% or more (almost completely withered)) | 5 (Herbicidal ratio of 90% or more (almost completely withered)) | 5 (Herbicidal ratio of 90% or more (almost completely withered))
CCS(=O)(=O)c1nnc2c(C(=O)Nc3nnc(C)o3)ccc(C(F)(F)F)n12 [1-041] | 3 (Herbicidal ratio of 40% or more and less than 70%) | 3 (Herbicidal ratio of 40% or more and less than 70%) | 3 (Herbicidal ratio of 40% or more and less than 70%) | 0 (Herbicidal ratio of 5% or less (almost no effect)) | 5 (Herbicidal ratio of 90% or more (almost completely withered)) | 4 (Herbicidal ratio of 70% or more and less than 90%) | 5 (Herbicidal ratio of 90% or more (almost completely withered)) | 2 (Herbicidal ratio of 20% or more and less than 40%) | 5 (Herbicidal ratio of 90% or more (almost completely withered))
